{"source": "patent US8349801B2", "about": "“Peptide ligands for G-protein coupled receptors” (priority 2006, dated 2013)", "system": "Isoproterenol induced rats", "assay": "Cardiac remodeling induced by Isoproterenol", "format": "in vivo, Wistar rats", "details": "1 ug/hour/Kg osmotic minipump, partial data", "method": "The effect of the peptides […] (SEQ ID NO:10), […]-dimer ([…]) (SEQ ID […]), P33_V (SEQ ID NO:7), P33-dimer (P33_D) (SEQ ID NO:6) on cardiac remodeling, was tested by determining their effect on heart hypertrophy and fibrosis (deposition of collagen I, III, and fibronectin) induced by Isoproterenol. Losartan (an antagonist of the known angiotensin II receptor, AT1, Kucharewicz et al., 2002; Hypertension, (40): 774-779) was used as positive control. The negative control group was treated with vehicle only. Additional control groups included rats not-treated with isoproterenol which were treated with the peptides, with Losartan or with the vehicle. The analysis included determination of the left ventricle mass and morphometry. In addition, immunofuorescence analysis of fibronectin and collagens I and III deposition was performed by confocal microscopy. Animals Acclimatization: Male Wistar rats Age: 13-14 weeks (250 to 300 g) were maintained in the animal facilities for 7 days before the beginning of the experiment. The animals were exposed to a brightness circle of light-dark cycle of 12 hs (day-06:00 to 18:00; night-18:00 to 06:00), and the room temperature was kept at 23±2° C. Heart failure was induced by daily injections of isoproterenol (2 mg/kg/day, subcutaneously) during 7 days. […] Immunofluorescence-labeling and quantitative confocal microscopy was used to investigate the distribution and quantity of collagen types I, III and fibronectin present in the left ventricles. […] Optimal confocal settings (aperture, gain and laser power) were determined at the beginning of each imaging session and then held constant during the analysis of all the samples. […] For quantitative analysis of collagens I, III, and fibronectin, the ImageTool 2.0 image analysis program was used ([…].edu/[…]) to measure the fluorescence intensity in images randomly selected. […]", "note": "No end group written: not given here.", "data": [{"sequence": "FLGYCIYLNRKRRGDPAFKRRLRD (also: dimer via cysteine; listed as Homo sapiens) [Peptide P61_dimer]", "values": [{"measurement": "effect as measured by Fibronectin deposition", "setting": "3 out of 6 animals", "result": "not significant"}, {"measurement": "heart hypertrophy induced by Isoproterenol, as indicated by deposition of fibronectin, Collagen I and Collagen III", "setting": "3 out of 6 animals of each group", "result": "effective in reducing the heart hypertrophy"}]}]}
